From patent US4542169A, “Biomedical devices containing isothiazolones to control bacteria growth” (Rohm and Haas Company, priority 1983, dated 1985)
In brackets after ≈: the same amount, converted by molar mass. Counter-ions that a name gives are not always drawn. One block for each molecule: values may come before it.

Assays:
[1] = test system: Aureobasidium pullulans; experiment: Minimum inhibitory concentration, fungistatic activity; assay type: cell-based; conditions: Table III: Active Ingredient MIC
[2] = test system: Staphylococcus aureus; experiment: Minimum inhibitory concentration, bacteriostatic activity; assay type: cell-based; conditions: Table III: Active Ingredient MIC
[3] = test system: Escherichia coli; experiment: as above; assay type: cell-based; conditions: Table III: Active Ingredient MIC
[4] = test system: Aspergillus niger; experiment: Minimum inhibitory concentration, fungistatic activity; assay type: cell-based; conditions: Table III: Active Ingredient MIC
[5] = test system: Candida albicans (yeast); experiment: as above; assay type: cell-based; conditions: Table III: Active Ingredient MIC
[6] = test system: Pseudomonas aeruginosa; experiment: Minimum inhibitory concentration, bacteriostatic activity; assay type: cell-based; conditions: Table III: Active Ingredient MIC
[7] = Solubility in H2O; assay type: physicochemical; conditions: water
[8] = test system: Aerobasidium pullulans (A.p); experiment: Zone of inhibition, polyvinyl chloride film; assay type: cell-based; conditions: PVC film
[9] = test system: Echerichia coli (E.c.); experiment: Zone of inhibition, polyvinyl chloride film discs on inoculated agar; assay type: cell-based; conditions: for Zone of Inhibition: PVC film; for Zones: PVC
Description: (§1) In a two-liter, three-necked, round-bottom, flask equipped with a mechanical stirrer was placed 100 g of polyvinyl chloride, 590 g of reagent grade tetrahydrofuran, and 40.0 g of dioctylphthalate. This was stirred with gentle heating (35°-40° C.) for two hours to completely dissolve the polyvinyl chloride. Then, a barium/calcium salt of a fatty acid (3.5 g), a phosphite chelating agent (1.5 g), stearic Acid (0.25 g) and epoxidized soy bean oil (7.5 g), were mixed with 21 g of tetrahydrofuran and added to the polyvinyl chloride solution. After stirring at room temperature for 30 minutes, the solution was ready for use.
(§2) Films containing the isothiazolones were cast by first preparing a 0.5 weight percent polyvinyl chloride solution by adding the isothiazolone to the polyvinyl chloride solution. Then, portions of the 0.5% solution were diluted to 0.1 and 0.05%. The films were drawn down on 12"×12" glass plates using a 50 mil-3" wide coating bar and the films were allowed to air dry for 48 hours.
(§3) The films were cut into 1.25 cm discs and placed in agar plates inoculated with Staphlococcus aureus (S.a) or Echerichia coli (E.c.).

[10] = test system: Staphlococcus aureus (S.a); experiment: as above; assay type: cell-based; conditions: for Zone of Inhibition: PVC film; for Zones: PVC
Description: as §1, §2, §3

[11] = test system: Aspergillis niger (A.n.); experiment: Zone of inhibition, polyvinyl chloride film; assay type: cell-based; conditions: PVC film
[12] = test system: Aerobasidium pullulans (A.p); experiment: Growth of fungus on polyvinyl chloride film; assay type: cell-based; parameters: key: 0: zero (no growth); 5: five (heavy growth); conditions: PVC film
Description: as §1, §2
(§4) In addition to zones of inhibition, the films were observed by growth of fungus on the film and rated from zero (no growth) to five (heavy growth).

[13] = test system: Aspergillis niger (A.n.); experiment: Growth of fungus on polyvinyl chloride film; assay type: cell-based; parameters: key: 0: zero (no growth); 5: five (heavy growth); conditions: PVC film
Description: as §1, §2, §4

[14] = test system: S.a.; experiment: Zone of inhibition, silicone rubber film discs on inoculated agar; assay type: cell-based, Staphlococcus aureus; conditions: S.a.; for Zone of Inhibition: silicone rubber film; for Zones: Silicone
Text: as §3
(§5) The films were cut into discs and tested as in example one against S.a. and E.c.

[15] = test system: E.c.; experiment: as above; assay type: cell-based, Echerichia coli; conditions: for Zone of Inhibition: silicone rubber film; for Zones: Silicone
Text: as §3, §5

[16] = test system: P.a.; experiment: Zone of inhibition, silicone film; assay type: cell-based, Pseudomonas aeruginosa
[17] = test system: Pseudomonas aeruginosa (P.a.); experiment: Zone of inhibition, polyvinyl chloride (vinyl) film discs; assay type: cell-based; conditions: PVC
Description: as §1, §3
Discs were tested against Pseudomonas aeruginosa (P.a.). The 1.0% films gave a slight zone of inhibition while the 5.0% film gave a 1 mm zone of inhibition.

Molecule: O=c1cc(Cl)sn1Cc1ccc(Cl)cc1 [5-chloro-2-(p-chlorobenzyl)-4-isothiazolin-3-one]
MIC [1]: 8 µg/mL (≈ 30.8 µM)
MIC [2]: 4 µg/mL (≈ 15.4 µM)
MIC [3]: 8 µg/mL (≈ 30.8 µM)
MIC [4]: 4 µg/mL (≈ 15.4 µM)
MIC [5]: 4 µg/mL (≈ 15.4 µM)
MIC [6]: 8 µg/mL (≈ 30.8 µM)

Molecule: CCN1CCN(C(=O)N[C@@H](C(=O)N[C@@H]2C(=O)N3[C@@H]2SC(C)(C)[C@@H]3C(=O)O)c2ccccc2)C(=O)C1=O [P, Piperacillin Na, reference compound]
Zones ([9]; 1.0%): 0 mm
Zones ([9]; .04%): 0 mm
Zones ([9]; .20%): 0 mm
Zones ([10]; 1.0%): slight
Zones ([10]; 5.0%): 13.8 mm
Zones ([10]; .04%): 0 mm
Zones ([10]; .20%): 0 mm
Zones ([16]; 1.0%): 5.3 mm
Zones ([16]; 5.0%): 13.3 mm
Zones ([16]; .04%): 0 mm
Zones ([16]; .20%): 0 mm
Zones ([14]; 1.0%): 14.8 mm
Zones ([14]; 5.0%): 21.3 mm
Zones ([14]; .04%): 0 mm
Zones ([14]; .20%): 0 mm
Zones ([15]; 1.0%): 13.3 mm
Zones ([15]; 5.0%): 17.3 mm
Zones ([15]; .04%): 0 mm
Zones ([15]; .20%): 0.8 mm
Zones ([17]; 1.0%): 0 mm
Zones ([17]; 5.0%): 9.8 mm
Zones ([17]; .04%): 0 mm
Zones ([17]; .20%): 0 mm

Molecule: CN(C)C1C(=O)C(C(N)=O)=C(O)C2(O)C(=O)C3=C(O)c4c(O)cccc4C(C)(O)C3CC12 (stereo not drawn) [T, Tetracycline HCl, reference compound]
Zones ([9]; 1.0%): 0 mm
Zones ([9]; .04%): 0 mm
Zones ([9]; .20%): 5.8 mm
Zones ([10]; 1.0%): 11.3 mm
Zones ([10]; 5.0%): 19.8 mm
Zones ([10]; .04%): 0 mm
Zones ([10]; .20%): 0 mm
Zones ([16]; 1.0%): 0 mm
Zones ([16]; 5.0%): 0 mm
Zones ([16]; .20%): 0.3 mm
Zones ([14]; 1.0%): 21.3 mm
Zones ([14]; 5.0%): 26.3 mm
Zones ([14]; .04%): 6.3 mm
Zones ([14]; .20%): 15.8 mm
Zones ([15]; 1.0%): 9.8 mm
Zones ([15]; 5.0%): 19.8 mm
Zones ([15]; .04%): 0 mm
Zones ([15]; .20%): 5.8 mm
Zones ([17]; 1.0%): 0 mm
Zones ([17]; 5.0%): 0 mm
Zones ([17]; .04%): 0 mm
Zones ([17]; .20%): 0 mm

Molecule: Gentamycin sulfate [reference compound]
Zones ([9]; 5.0%): 9.3 mm
Zones ([9]; .04%): 0 mm
Zones ([10]; .04%): slight
Zones ([17]; 5.0%): 6.8 mm
Zones ([17]; .04%): 0 mm
Zones ([17]; .20%): 3.3 mm

Second part, led by results:

solubility [7]: 195 µg/mL (≈ 750 µM)
Molecule: O=c1c(Cl)c(Cl)sn1Cc1ccccc1 [Compound 2, 4,5-Dichloro-N--benzyl-isothiazolin-3-one]
Zone of Inhibition ([8]; 0.05%): 0 mm
Zone of Inhibition ([8]; 0.1%): 0 mm
Zone of Inhibition ([8]; 0.5%): 4.8 mm
Zone of Inhibition ([9]; 0.05%): 0 mm
Zone of Inhibition ([9]; 0.1%): 0 mm
Zone of Inhibition ([9]; 0.5%): 3.3 mm
Zone of Inhibition ([10]; 0.05%): 2.0 mm
Zone of Inhibition ([10]; 0.1%): 3.8 mm
Zone of Inhibition ([11]; 0.05%): 0 mm
Zone of Inhibition ([11]; 0.1%): 0 mm
Zone of Inhibition ([11]; 0.5%): 4.3 mm
Growth on Film ([12]; 0.05%): 4
Growth on Film ([12]; 0.1%): 0
Growth on Film ([12]; 0.5%): 0
Growth on Film ([13]; 0.05%): 4
Growth on Film ([13]; 0.1%): 0
Growth on Film ([13]; 0.5%): 0

solubility [7]: 96 µg/mL (≈ 350 µM)
Molecule: O=c1c(Cl)c(Cl)sn1CCc1ccccc1 [Compound 3, 4,5-Dichloro-N-- 2-phenethyl-isothiazolin-3-one]
Zone of Inhibition ([8]; 0.05%): 0 mm
Zone of Inhibition ([8]; 0.1%): 0 mm
Zone of Inhibition ([8]; 0.5%): 3.8 mm
Zone of Inhibition ([9]; 0.05%): 0 mm
Zone of Inhibition ([9]; 0.1%): 0 mm
Zone of Inhibition ([9]; 0.5%): 1.8 mm
Zone of Inhibition ([10]; 0.05%): 1.8 mm
Zone of Inhibition ([10]; 0.1%): 4.3 mm
Zone of Inhibition ([10]; 0.5%): 10.8 mm
Zone of Inhibition ([11]; 0.05%): 0 mm
Zone of Inhibition ([11]; 0.1%): 0 mm
Zone of Inhibition ([11]; 0.5%): 4.8 mm
Growth on Film ([12]; 0.05%): 2
Growth on Film ([12]; 0.1%): 0
Growth on Film ([12]; 0.5%): 0
Growth on Film ([13]; 0.05%): 1
Growth on Film ([13]; 0.1%): 0
Growth on Film ([13]; 0.5%): 0

solubility [7]: 143 µg/mL (≈ 563 µM)
Molecule: CCCCCCn1sc(Cl)c(Cl)c1=O [Compound 4, 4,5-Dichloro-N--n-hexyl-isothiazolin-3-one]
Zone of Inhibition ([8]; 0.05%): 0 mm
Zone of Inhibition ([8]; 0.1%): 0 mm
Zone of Inhibition ([8]; 0.5%): 2.8 mm
Zone of Inhibition ([9]; 0.05%): 0 mm
Zone of Inhibition ([9]; 0.1%): 0 mm
Zone of Inhibition ([9]; 0.5%): 0.8 mm
Zone of Inhibition ([10]; 0.05%): 1.3 mm
Zone of Inhibition ([10]; 0.1%): 2.3 mm
Zone of Inhibition ([10]; 0.5%): 9.3 mm
Zone of Inhibition ([11]; 0.05%): 0 mm
Zone of Inhibition ([11]; 0.1%): 0 mm
Zone of Inhibition ([11]; 0.5%): 3.8 mm
Growth on Film ([12]; 0.05%): 3
Growth on Film ([12]; 0.1%): 0
Growth on Film ([12]; 0.5%): 0
Growth on Film ([13]; 0.05%): 0
Growth on Film ([13]; 0.1%): 0
Growth on Film ([13]; 0.5%): 0

MIC [1]: 5 µg/mL (≈ 17.7 µM)
MIC [2]: 4 µg/mL (≈ 14.2 µM)
MIC [3]: 16 µg/mL (≈ 56.7 µM)
MIC [4]: 9 µg/mL (≈ 31.9 µM)
MIC [5]: 5 µg/mL (≈ 17.7 µM)
MIC [6]: 16 µg/mL (≈ 56.7 µM)
Molecule: CCCCCCCCn1sc(Cl)c(Cl)c1=O [Compound 5, 4,5-Dichloro-N--n-octyl-isothiazolin-3-one]
Zone of Inhibition ([8]; 0.05%): 0 mm
Zone of Inhibition ([8]; 0.1%): 0 mm
Zone of Inhibition ([8]; 0.5%): 0 mm
Zone of Inhibition ([9]; 0.05%): 0 mm
Zone of Inhibition ([9]; 0.1%): 0 mm
Zone of Inhibition ([9]; 0.5%): 0 mm
Zone of Inhibition ([10]; 0.05%): 0 mm
Zone of Inhibition ([10]; 0.1%): 0.3 mm
Zone of Inhibition ([10]; 0.5%): 3.3 mm
Zone of Inhibition ([11]; 0.05%): 0 mm
Zone of Inhibition ([11]; 0.1%): 0 mm
Zone of Inhibition ([11]; 0.5%): 0 mm
Zone of Inhibition ([14]; Conc. 10): 0 mm
Zone of Inhibition ([14]; Conc. 100): 1.8 mm
Zone of Inhibition ([14]; Conc. 1000): 8.8 mm
Zone of Inhibition ([15]; Conc. 10): 0 mm
Zone of Inhibition ([15]; Conc. 100): 0 mm
Zone of Inhibition ([15]; Conc. 1000): 0.8 mm
Growth on Film ([12]; 0.05%): 5
Growth on Film ([12]; 0.1%): 3
Growth on Film ([12]; 0.5%): 1
Growth on Film ([13]; 0.05%): 5
Growth on Film ([13]; 0.1%): 3
Growth on Film ([13]; 0.5%): 0

solubility [7]: 25 µg/mL (≈ 93.2 µM)
Molecule: CCCCCCCn1sc(Cl)c(Cl)c1=O [Compound 6, 4,5-Dichloro-N--n-heptyl-isothiazolin-3-one]
Zone of Inhibition ([8]; 0.05%): 3 mm
Zone of Inhibition ([8]; 0.1%): 1 mm
Zone of Inhibition ([8]; 0.5%): 0 mm
Zone of Inhibition ([9]; 0.05%): 0 mm
Zone of Inhibition ([9]; 0.1%): 0 mm
Zone of Inhibition ([9]; 0.5%): 0 mm
Zone of Inhibition ([10]; 0.05%): 0 mm
Zone of Inhibition ([10]; 0.1%): 1.3 mm
Zone of Inhibition ([10]; 0.5%): 4.3 mm
Zone of Inhibition ([11]; 0.05%): 0 mm
Zone of Inhibition ([11]; 0.1%): 0 mm
Zone of Inhibition ([11]; 0.5%): 0 mm
Growth on Film ([12]; 0.05%): 3
Growth on Film ([12]; 0.1%): 2
Growth on Film ([12]; 0.5%): 0
Growth on Film ([13]; 0.05%): 0
Growth on Film ([13]; 0.1%): 0
Growth on Film ([13]; 0.5%): 0
